Data on 1 compound can be found in publication PMC5041076, “Ilex kaushue and Its Bioactive Component 3,5-Dicaffeoylquinic Acid Protected Mice from Lipopolysaccharide-Induced Acute Lung Injury” (Scientific Reports, 2016).

In data set [1] the test system is LTB4-induced human neutrophils. The experiment in a line: Elastase release in LTB4-induced neutrophils. The data set is classed as cell-based. To be noted: Neutrophil, inducer LTB4, Table S2. As to the method:
(§1) All assays were performed as described previously[58],[59]. Neutrophils isolated from the blood of healthy volunteers (20–30 years old) were resuspended in a Ca^2+-free HBSS buffer (pH 7.4) at 4 °C before use. O2^.− generation was measured based on reduction of ferricytochrome c. In brief, after supplementation with 0.5 mg/ml ferricytochrome c and 1 mM Ca^2+, neutrophils were equilibrated at 37 °C for 2 min and incubated with the specified drugs for 5 min. Neutrophils were activated using 30 nM fMLF or 100 nM LTB4 for 10 min after addition of cytochalasin B (CB, 1 μg/mL) for 3 min. Changes in absorbance concomitant with reduction of ferricytochrome c at 550 nm were continuously monitored. For elastase release, neutrophils (6 × 10^5 cells/mL) were mixed with methoxysuccinyl-Ala-Ala-Pro-Val-pNA (100 μM) substrate at 37 °C for 5 min. […] Inhibition of superoxide generation and elastase release were calculated in keeping with previous reports.

The next data set concerns the target Human thrombin (Homo sapiens, UniProt P00734). As to the kind of experiment: Serine protease enzyme inhibition assay, thrombin.
Data set [2] has as its system LPS-stimulated RAW 264.7 cells. Also noted: method as in PMID 25975516. The note with it: LPS-stimulated RAW 264.7 cells ref 45; cited from earlier work.
Another data set has as its system LPS-induced ALI in mice. As to the kind of experiment: LPS-induced ALI in mice. In kind it is in vivo, mouse. The procedure:
Mice were randomly divided into nine groups (n = 6 per group): (1) Vehicle, (2) IKWE (500 mg/kg), (3) 3,5-DCQA (50 mg/kg), (4) LPS, (5) LPS + DEX (10 mg/kg), (6) LPS + IKWE (250 mg/kg), (7) LPS + IKWE (500 mg/kg), (8) LPS + 3,5-DCQA (25 mg/kg) and (9) LPS + 3,5-DCQA (50 mg/kg). Agents were dissolved in vehicle solution (PBS containing 10% Tween-80). All animals were pretreated intraperitoneally with 100 μL vehicle solution or agents, respectively, 1 h before PBS or LPS (Sigma, Escherichia coli. 055:B5) intratracheal injection (5 mg/kg in 50 μL of PBS)[26],[27]. Mice were sacrificed at 6 h post-dosage and the left lung collected for histological examination or MPO activity measurement. Lung tissue was fixed with 10% formalin before embedding with paraffin wax and routine H&E staining. MPO activity was measured as described earlier. The right lobes were prepared for W/D weight ratio determination or BALF analysis. To obtain the W/D weight ratio, wet tissues were weighed immediately after collection, dried in the oven at 80 °C for 48 h and re-weighed. For post-treatment experiments, mice treated with vehicle or 3,5-DCQA (50 mg/kg) intraperitoneally 1 h after LPS treatment.
Mice were sacrificed and hilum of the left lung sealed. BALF was collected following injection with 0.2, 0.2, 0.3, 0.3 or 0.5 mL PBS. BALF samples were combined and centrifuged at 1,000 rpm for 15 min at 4 °C. Total proteins in the supernatant fraction were determined using the protein assay dye (BIO-RAD, 500-0006) with BSA as the reference and TNF-α and IL-6 levels measured with ELISA kits (eBioscience, 88-7324-88 and 88-7064-88). Cell pellets from BALF were resuspended in 100 μL PBS and cytospun (200 g, 3 min) onto a glass microscope slide, followed by staining with Liu’s stain. Neutrophils were counted under a light microscope in five randomly selected fields (×200 magnification)[60].

For another data set, the system named is human neutrophils. Further details: method as in PMID 12384183. To be noted: 100 μM, human neutrophils ref 35; cited from earlier work.
Data set [3] concerns the target T1, Human neutrophil elastase (Homo sapiens, UniProt P08246).
T1 construct: purchased Enzo BML-SE284
T1 sequence (P08246 30-267): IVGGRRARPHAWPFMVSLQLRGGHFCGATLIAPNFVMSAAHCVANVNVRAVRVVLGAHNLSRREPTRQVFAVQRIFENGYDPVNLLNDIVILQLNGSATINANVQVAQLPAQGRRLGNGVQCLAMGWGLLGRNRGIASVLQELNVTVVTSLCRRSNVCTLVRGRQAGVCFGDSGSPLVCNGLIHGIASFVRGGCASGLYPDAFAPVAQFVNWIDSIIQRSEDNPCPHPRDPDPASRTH
As to the kind of experiment: Serine protease enzyme inhibition assay, HNE. The data set is classed as biochemical.

For data set [4], the system named is fMLF/CB-activated neutrophils. The experiment in a line: O2.- generation in fMLF/CB-activated neutrophils (ferricytochrome c reduction). The data set is classed as cell-based, human. To be noted: Neutrophil; fMLF/CB-activated human neutrophils. As to the method:
as §1

The test system of a further data set is Akt. The experiment in a line: Immunoblotting of Akt phosphorylation in fMLF-activated neutrophils. In kind it is cell-based, human. To be noted: 10 μM, 5 min before fMLF (0.1 μM) 0.5 min, Western blot; listed as 3,5-DCQA. As to the method: (§2) Neutrophils were pretreated with DMSO or 3,5-DCQA (10 μM) for 5 min before fMLF stimulation for 0.5 min at 37 °C. Cells were lysed with lysis buffer consisting of 50 mM HEPES (pH 7.4), 100 mM NaCl, 1 mM Ca^2+, 2 mM Na3VO4, 1 mM phenylmethanesulfonyl fluoride, 5% b-mercaptoethanol, 10 mM p-nitrophenyl phosphate, 1% protease inhibitor cocktail (Sigma-Aldrich) and 1% Triton X-100. Cell lysates were collected by centrifugation at 14,000 rpm for 20 min at 4 °C. After gel electrophoresis and transferring to membranes, samples were blocked with 5% nonfat milk in a mixture of Tris-buffer saline and Tween 20. Target protein was identified by the corresponding primary antibody overnight at 4 °C. Membranes were incubated with horseradish peroxidase-conjugated, secondary anti-rabbit or anti-mouse antibodies at room temperature for 1 h. After washing, enhanced chemiluminescence solution was used and protein expression was analyzed by the BioSpectrum Imaging System (UVP, Upland, CA). The quantitative ratio of target protein was normalized to total protein or GAPDH.
(In general: A western blot detects proteins with antibodies after separation by electrophoresis.)

Data set [5] relates to fMLF/CB-activated neutrophils. As to the kind of experiment: Elastase release in fMLF/CB-activated neutrophils. In kind it is cell-based. To be noted: read-out: IC50 HNE (NE activity / elastase release). As to the method:
as §1

For data set [6] the following is noted: after intravenous administration ref 46, 47, 49; cited from earlier work.
A further data set relates to Vav. The experiment in a line: Immunoblotting of Vav phosphorylation in fMLF-activated neutrophils. The data set is classed as cell-based, human. The note with it: 10 μM, 5 min before fMLF (0.1 μM) 0.5 min, Western blot; listed as 3,5-DCQA. The procedure:
as §2

The test system of a further data set is Src family kinases. As to the kind of experiment: Immunoblotting of Src family kinase phosphorylation in fMLF-activated neutrophils. The data set is classed as cell-based, human. The note with it: 10 μM, 5 min before fMLF (0.1 μM) 0.5 min, Western blot; listed as 3,5-DCQA. As to the method:
as §2

In the next data set the target is T2, Human cathepsin G (Homo sapiens, UniProt P08311).
T2 construct: purchased Enzo BML-SE283
T2 sequence (P08311 21-255): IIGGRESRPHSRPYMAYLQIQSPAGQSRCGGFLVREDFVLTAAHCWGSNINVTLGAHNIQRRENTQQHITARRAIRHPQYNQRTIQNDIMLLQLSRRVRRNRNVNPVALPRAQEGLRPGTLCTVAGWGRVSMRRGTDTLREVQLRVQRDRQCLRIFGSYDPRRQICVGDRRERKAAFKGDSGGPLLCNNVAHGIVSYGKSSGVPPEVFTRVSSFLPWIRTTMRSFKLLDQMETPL
The experiment in a line: Serine protease enzyme inhibition assay, cathepsin G. The data set is classed as biochemical. To be noted: mean ± S.E.M. (n ≥ 3).

For the next data set, the target named is T3, Bovine chymotrypsin (Bos taurus, UniProt P00766).
T3 construct: purchased Sigma-Aldrich C4129
The experiment in a line: Serine protease enzyme inhibition assay, chymotrypsin. The data set is classed as biochemical. The note with it: mean ± S.E.M. (n ≥ 3).

The next data set has as its target T4, Human proteinase 3 (Homo sapiens, UniProt P24158).
T4 construct: purchased Merk 539483
T4 sequence (P24158 28-256): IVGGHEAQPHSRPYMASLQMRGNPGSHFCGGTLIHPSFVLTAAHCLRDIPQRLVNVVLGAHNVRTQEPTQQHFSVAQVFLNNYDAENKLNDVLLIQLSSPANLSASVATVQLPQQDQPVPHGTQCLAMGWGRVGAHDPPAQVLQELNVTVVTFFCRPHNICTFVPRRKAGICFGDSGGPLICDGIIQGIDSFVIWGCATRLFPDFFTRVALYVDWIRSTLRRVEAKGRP
As to the kind of experiment: Serine protease enzyme inhibition assay, proteinase 3. In kind it is biochemical. The note with it: mean ± S.E.M. (n ≥ 3).

[7] abbreviates: pretreatment i.p. 1 h before LPS, 6 h.

“Also recorded” adds a separate entry of the source. Some results are limits rather than exact numbers.

Regarding `O=C(C=Cc1ccc(O)c(O)c1)OC1CC(O)(C(=O)O)CC(OC(=O)C=Cc2ccc(O)c(O)c2)C1O` (stereo not shown) [Compound 6, 3,5-dicaffeoylquinic acid], the IC50 in data set [1] is 2.9 ± 0.55 µM; on Human thrombin it was above 30 µM; in [3] (enzyme assay, mean ± S.E.M. (n ≥ 3), read-out: IC50 HNE), 1.86 ± 0.06 µM; in [4], 1.92 ± 0.54 µM; in [5] (Homo sapiens, Neutrophil), 12 ± 0.6 µM; in data set [5] (fMLF/CB-activated human neutrophils), above 10 µM. Moreover, the IC50 against Human cathepsin G, at Bovine chymotrypsin and at Human proteinase 3 was above 30 µM throughout. The “TNF-α and IL-6 expression” value in data set [2] was “able to reduce”. The “pathological features of ALI, post-treatment” value in the data set with LPS-induced ALI in mice (50 mg/kg i.p. 1 h after LPS) was “significantly improved”. In addition, in the data set with LPS-induced ALI in mice (setting [7]), the “levels of proinflammatory cytokines (TNF-α and IL-6) in BALF” value was “Reduced levels”. Moreover, in the data set on LPS-induced ALI in mice (setting [7]), the “lung edema (W/D weight ratio)” value was “improve lung edema”. In the data set on LPS-induced ALI in mice (pretreatment i.p. 1 h before LPS, 6 h, listed as 3,5-DCQA), the “accumulation / infiltration of neutrophils in lung tissue (MPO activity, BALF, histology)” value is given as “suppress accumulation of neutrophils; also recorded: significantly reduced”. The “pathological features of ALI (hemorrhage, infiltrating neutrophils, thickening of alveolar wall)” value in the data set with LPS-induced ALI in mice (pretreatment i.p. 1 h before LPS, IKWE 500 mg/kg, 3,5-DCQA 50 mg/kg) is recorded as “significantly improved”. In addition, the “elastase release, myeloperoxidase activity and superoxide production” value with human neutrophils is “able to inhibit”. For the same compound, in data set [3] (at 30 M (so in the source), Table S3), the “Inh % (HNE inhibition)” value is 90.53 ± 0.52%. Further, the “selectivity of inhibitory effect among serine proteases” value in [3] (five serine proteases examined) is listed as “high selectivity for HNE”. The “phosphorylation of Akt” value in the data set with Akt is recorded as “did not inhibited the phosphorylation”. Besides, the “time detectable in the plasma” value in data set [6] is 4 h. The “phosphorylation of Vav” value with Vav was “reduce phosphorylation; also recorded: inhibited the phosphorylation”. Besides, the “phosphorylation of SFKs” value with Src family kinases is on record as “reduce phosphorylation; also recorded: inhibited the phosphorylation”.
